Assay: xn = mol fraction of the nth substance listed, in the solute-free solvent

CCC(C(C)O)n1ncn(-c2ccc(N3CCN(c4ccc(OCC5COC(Cn6cncn6)(c6ccc(F)cc6F)C5)cc4)CC3)cc2)c1=O (stereo unspecified) + CCOC(C)=O + CCO
solubility (g/100 g solution)
Conditions	273.15 K	278.15 K	283.15 K	288.15 K	293.15 K	298.15 K	303.15 K	308.15 K	313.15 K
x2 = 0.05491	0.0447	0.057	0.0728	0.0894	0.109	0.13	0.151	0.174	0.201
x2 = 0.1156	0.0657	0.084	0.104	0.125	0.148	0.173	0.2	0.229	0.264
x2 = 0.1831	0.106	0.131	0.158	0.188	0.217	0.251	0.289	0.33	0.38
x2 = 0.2585	0.144	0.174	0.207	0.243	0.28	0.323	0.37	0.422	0.484
x2 = 0.3434	0.162	0.191	0.227	0.265	0.308	0.358	0.417	0.486	0.561
x2 = 0.4396	0.142	0.171	0.202	0.237	0.27	0.311	0.359	0.412	0.48
x2 = 0.5496	0.112	0.137	0.163	0.192	0.221	0.253	0.285	0.321	0.36
x2 = 0.6765	0.0924	0.114	0.136	0.158	0.182	0.206	0.232	0.259	0.294
x2 = 0.8247	0.0667	0.0831	0.101	0.119	0.138	0.158	0.182	0.21	0.24
